Experimental data as given in article PMC6264139, “Schiff Bases of Indoline-2,3-dione: Potential Novel Inhibitors of Mycobacterium Tuberculosis (Mtb) DNA Gyrase ^†” (Molecules, 2011).

**Q.** Which melting point does the source give for O=C1Nc2ccc(Cl)cc2/C1=N/NC(=O)c1ccncc1 [Compound 4, (Z)-N'-(5-Chloro-2-oxoindolin-3-ylidene)isonicotinohydrazide] here?
**A.** 345 to 348 °C

**Q.** With O=C1Nc2ccc([N+](=O)[O-])cc2/C1=N/NC(=O)c1ccncc1 [Compound 8, (Z)-N'-(5-Nitro-2-oxoindolin-3-ylidene)isonicotinohydrazide] as the compound, how does the melting point read?
**A.** 350 to 353 °C

**Q.** For O=C1Nc2ccc(OC(F)(F)F)cc2/C1=N/NC(=O)c1ccncc1 [Compound 7, (Z)-N'-(2-Oxo-5-(trifluoromethoxy)indolin-3-ylidene)isonicotinohydrazide], which melting point is on record?
**A.** 262 to 265 °C

**Q.** For Cc1ccc2c(c1)/C(=N/NC(=O)c1ccncc1)C(=O)N2 [Compound 6, (Z)-N'-(5-Methyl-2-oxoindolin-3-ylidene)isonicotinohydrazide], which melting point is on record?
**A.** 319 to 322 °C

**Q.** For O=C(N/N=C1\C(=O)N(Cc2ccccc2)c2ccc(Cl)cc21)c1ccncc1 [Compound 11, (Z)-N'-(1-Benzyl-5-chloro-2-oxoindolin-3-ylidene)isonicotinohydrazide], which melting point is on record?
**A.** 167 to 171 °C

**Q.** For O=C1/C(=N\NC(=O)C23CC4CC(CC(C4)C2)C3)c2ccccc2N1c1ccccc1 [Compound 22, (Z)-N'-(2-oxo-1-phenylindolin-3-ylidene)adamantane-1-carbohydrazide], which melting point is on record?
**A.** 201 to 203 °C

**Q.** For O=C(N/N=C1\C(=O)N(c2ccccc2)c2ccccc21)c1cc2ccccc2o1 [Compound 20, (Z)-N'-(2-Oxo-1-phenylindolin-3-ylidene)benzofuran-2-carbohydrazide], which melting point is on record?
**A.** 235 to 238 °C

**Q.** Which melting point does the source give for CCn1cc(C(=O)N/N=C2\C(=O)Nc3ccc(F)cc32)c(=O)c2ccc(C)nc21 [Compound 26, (Z)-1-Ethyl-N'-(5-fluoro-2-oxoindolin-3-ylidene)-7-methyl-4-oxo-1,4-dihydro-1,8-naphthyridine-3-carbohydrazide] here?
**A.** > 360 °C

**Q.** With O=C(N/N=C1\C(=O)N(c2ccccc2)c2ccccc21)c1ccncc1 [Compound 9, (Z)-N'-(2-Oxo-1-phenylindolin-3-ylidene)isonicotinohydrazide] as the compound, how does the melting point read?
**A.** 201 to 205 °C

**Q.** For O=C1Nc2ccccc2/C1=N/NC(=O)c1cccnc1 [Compound 14, (Z)-N'-(2-Oxoindolin-3-ylidene)nicotinohydrazide], which melting point is on record?
**A.** 254 to 256 °C

**Q.** With Cc1ccc2c(c1)/C(=N/NC(=O)c1cc3ccccc3o1)C(=O)N2 [Compound 18, (Z)-N'-(5-Methyl-2-oxoindolin-3-ylidene)benzofuran-2-carbohydrazide] as the compound, how does the melting point read?
**A.** 331 to 336 °C

**Q.** For Cc1ccc2c(c1)/C(=N/NC(=O)c1ccccc1Nc1c(Cl)ccc(C)c1Cl)C(=O)N2 [Compound 24, (Z)-2-(2,6-Dichloro-3-methylphenylamino)-N'-(5-methyl-2-oxoindolin-3-ylidene)-benzohydrazide], which melting point is on record?
**A.** 283 to 287 °C

**Q.** With O=C1Nc2ccc([N+](=O)[O-])cc2/C1=N/NC(=O)c1cc2ccccc2o1 [Compound 19, (Z)-N'-(5-Nitro-2-oxoindolin-3-ylidene)benzofuran-2-carbohydrazide] as the compound, how does the melting point read?
**A.** 367 to 369 °C

**Q.** Which melting point does the source give for O=C1Nc2ccc(Cl)cc2/C1=N/NC(=O)c1cc2ccccc2o1 [Compound 17, (Z)-N'-(5-Chloro-2-oxoindolin-3-ylidene)benzofuran-2-carbohydrazide] here?
**A.** 335 to 338 °C

**Q.** For Cc1ccc2c(c1)/C(=N/NC(=O)c1ccncc1)C(=O)N2Cc1ccccc1 [Compound 13, (Z)-N'-(1-Benzyl-5-methyl-2-oxoindolin-3-ylidene)isonicotinohydrazide], which melting point is on record?
**A.** 159 to 162 °C

**Q.** For O=C1Nc2ccccc2/C1=N/NC(=O)c1ccc([N+](=O)[O-])o1 [Compound 16, (Z)-5-Nitro-N'-(2-Oxoindolin-3-ylidene)furan-2-carbohydrazide], which melting point is on record?
**A.** 309 to 311 °C

**Q.** For O=C1Nc2ccc(F)cc2/C1=N/NC(=O)c1cc2cc([N+](=O)[O-])ccc2o1 [Compound 21, (Z)-N'-(5-Fluoro-2-oxoindolin-3-ylidene)-5-nitrobenzofuran-2-carbhydrazide], which melting point is on record?
**A.** 357 to 359 °C

**Q.** With O=C1Nc2ccc(F)cc2/C1=N/NC(=O)c1ccco1 [Compound 15, (Z)-N'-(5-Fluoro-2-oxoindolin-3-ylidene)furan-2-carbhydrazide] as the compound, how does the melting point read?
**A.** 310 to 312 °C

**Q.** With O=C1Nc2ccc(F)cc2/C1=N/NC(=O)c1ccncc1 [Compound 5, (Z)-N'-(5-Fluoro-2-oxoindolin-3-ylidene)isonicotinohydrazide] as the compound, how does the melting point read?
**A.** 346 to 348 °C

**Q.** Which melting point does the source give for O=C1Nc2ccc(OC(F)(F)F)cc2/C1=N/NC(=O)c1ccccc1Nc1cccc(C(F)(F)F)c1 [Compound 25, (Z)-N'-(2-Oxo-5-(trifluoromethoxy)indolin-3-ylidene)-2-(3-(trifluoromethyl)phenylamino)-benzo-hydrazide] here?
**A.** 226 °C

**Q.** For Cc1cccc(Nc2ccccc2C(=O)N/N=C2\C(=O)N(Cc3ccccc3)c3ccccc32)c1C [Compound 23, (Z)-N'-(1-Benzyl-2-oxoindolin-3-ylidene)-2-(2,3-dimethylphenylamino)benzohydrazide], which melting point is on record?
**A.** 286 to 288 °C

**Q.** For O=C(N/N=C1\C(=O)N(Cc2ccccc2)c2ccc(F)cc21)c1ccncc1 [Compound 12, (Z)-N'-(1-Benzyl-5-fluoro-2-oxoindolin-3-ylidene)isonicotinohydrazide], which melting point is on record?
**A.** 188 to 192 °C
